According to US20220241264A1, “METHODS FOR PREVENTION AND TREATMENT OF FIBROMYALGIA BY CONTACT VASODILATORS” (priority 2019, published 2022):

Tested on: fibromyalgia pain in soft tissue regions and myofacial regions
Settings: for patient-reported pain levels in the treated regions: daily use in a topical form on skin adjacent to regions where pain is experienced, during treatment; for patient-reported pain levels after treatment is halted: treatment halted after several months, report weeks later
Description: The following prophetic examples are of cases that address the painful experiences associated with fibromyalgia. The examples also describe a new, safe, simple and until now, an unknown pharmaceutical solution to the problem of fibromyalgia syndrome: the novel use of vasodilators such as calcium channel blockers, ACE inhibitors, and angiotensin receptor blockers. Vasodilators are not analgesics, but they resolve or mitigate the pain associated with fibromyalgia.
A patient is diagnosed with fibromyalgia, and suffers from pain in soft tissue regions and myofacial regions. […] After several months, treatment is halted.
A patient is diagnosed with fibromyalgia, and suffers from pain in soft tissue regions and myofacial regions. Daily use of Amlodipine in a topical form is prescribed for application to skin adjacent to regions where pain is experienced. […] After several months, treatment is halted.
A patient is diagnosed with fibromyalgia, and suffers from pain in soft tissue regions and myofacial regions. Daily use of enalapril in a topical form is prescribed for application to skin adjacent to regions where pain is experienced. […] After several months, treatment is halted.
A patient is diagnosed with fibromyalgia, and suffers from pain in soft tissue regions and myofacial regions. Daily use of lisinopril in a topical form is prescribed for application to skin adjacent to regions where pain is experienced. […] After several months, treatment is halted.
A patient is diagnosed with fibromyalgia, and suffers from pain in soft tissue regions and myofacial regions. Daily use of losartan in a topical form is prescribed for application to skin adjacent to regions where pain is experienced. […] After several months, treatment is halted.
A patient is diagnosed with fibromyalgia, and suffers from pain in soft tissue regions and myofacial regions. Daily use of irbesartan in a topical form is prescribed for application to skin adjacent to regions where pain is experienced. […] After several months, treatment is halted.

| SMILES | patient-reported pain levels in the treated regions | patient-reported pain levels after treatment is halted |
| --- | --- | --- |
| NCCCC[C@H](N[C@@H](CCc1ccccc1)C(=O)O)C(=O)N1CCC[C@H]1C(=O)O [lisinopril] | reduction in pain levels | reduction in pain levels has been maintained |
| CCOC(=O)[C@H](CCc1ccccc1)N[C@@H](C)C(=O)N1CCC[C@H]1C(=O)O [enalapril] | reduction in pain levels | reduction in pain levels has been maintained |
| CCCCc1nc(Cl)c(CO)n1Cc1ccc(-c2ccccc2-c2nn[nH]n2)cc1 [losartan] | reduction in pain levels | reduction in pain levels has been maintained |
| CCCCC1=NC2(CCCC2)C(=O)N1Cc1ccc(-c2ccccc2-c2nnn[nH]2)cc1 [irbesartan] | reduction in pain levels | reduction in pain levels has been maintained |
